{"source": "patent US8978468B2", "about": "“Nonvisual indication of an unwanted chemical in an ingestible substance” (priority 2009, dated 2015)", "origin": "cited, not measured here", "key": {"[1]": {"details": "species and route not given"}, "[2]": {"test_system": "mammal (species unspecified)", "details": "route not given"}}, "note": "Like-named read-outs stand apart in the source and are kept apart here.", "data": [{"compound": "2-aminoethanol", "values": [{"measurement": "Toxic Dose oral-rat LD50", "setting": "rat; oral", "value": "oral-rat LD50 1720 mg/kg"}]}, {"compound": "2-methylpropane-1-thiol", "values": [{"measurement": "Toxic Dose gavage-rat LD50", "setting": "rat; gavage", "value": "gavage-rat LD50 7168 mg/kg"}, {"measurement": "Toxic Dose oral-rat LD50", "setting": "rat; oral", "value": "oral-rat LD50 7168 mg/kg"}]}, {"compound": "CC1OCCC1S", "note": "(stereo not drawn) [2-methyltetrahydrofuran-3-thiol]", "values": [{"measurement": "Toxic Dose gavage-mouse LD50", "setting": "mouse; gavage", "value": "gavage-mouse LD50 1860 mg/kg"}]}, {"compound": "CC(C)C(C)S", "note": "(stereo not drawn) [3-methylbutane-2-thiol]", "values": [{"measurement": "Toxic Dose gavage-rat LD50 [sex: M, F]", "setting": "rat; gavage, sex: M, F", "value": 540, "unit": "mg/kg"}]}, {"compound": "NCCCC(=O)O", "note": "[4-aminobutanoic acid]", "values": [{"measurement": "Toxic Dose oral-mouse LD50", "setting": "mouse; oral", "value": "oral-mouse LD50 12680 mg/kg"}, {"measurement": "Toxic Dose mouse LD50", "setting": "mouse; route not given", "value": "mouse LD50 7230 mg/kg"}]}, {"compound": "NC1CCCCC1", "note": "[cyclohexanamine]", "values": [{"measurement": "Toxic Dose oral-rat LD50", "setting": "rat; in vivo, po", "value": "oral-rat LD50 11 mg/kg"}, {"measurement": "Toxic Dose LD50", "setting": "[1]", "value": "LD50 224 mg/kg"}]}, {"compound": "SC1CCCC1", "note": "[cyclopentanethiol]", "values": [{"measurement": "Toxic Dose oral-mouse LD50 [sex: M, F (5/group)]", "setting": "mouse; oral, sex: M, F (5/group)", "value": "(5/group)] 2680 mg/kg"}]}, {"compound": "butane-1-thiol", "values": [{"measurement": "Toxic Dose gavage-rat LD50", "setting": "rat; gavage", "value": "gavage-rat LD50 1500 mg/kg"}]}, {"compound": "propan-1-amine", "values": [{"measurement": "Toxic Dose oral-rat LD50", "setting": "rat; oral", "value": "oral-rat LD50 370 mg/kg"}, {"measurement": "Toxic Dose mammal (species unspecified) LD50", "setting": "[2]", "value": "LD50 580 mg/kg"}]}, {"compound": "propan-2-amine", "values": [{"measurement": "Toxic Dose oral-rat LD50", "setting": "rat; oral", "value": "oral-rat LD50 111 mg/kg"}, {"measurement": "Toxic Dose mammal (species unspecified) LD50", "setting": "[2]", "value": "LD50 500 mg/kg"}]}]}
